The numbers were not newly measured in PMC9318694 (Molecules, 2022), which cites them from elsewhere.

Like-named read-outs stand apart in the source and are kept apart here.

The target in this data set is D2R (Homo sapiens, UniProt P14416). The following applies: read-out: KI, cited from earlier work.
[1] abbreviates: Table S1, data set of actives, radio-ligand binding assays, ref ChEMBL, [50]-[70].

D2R, sequence (P14416 whole entry): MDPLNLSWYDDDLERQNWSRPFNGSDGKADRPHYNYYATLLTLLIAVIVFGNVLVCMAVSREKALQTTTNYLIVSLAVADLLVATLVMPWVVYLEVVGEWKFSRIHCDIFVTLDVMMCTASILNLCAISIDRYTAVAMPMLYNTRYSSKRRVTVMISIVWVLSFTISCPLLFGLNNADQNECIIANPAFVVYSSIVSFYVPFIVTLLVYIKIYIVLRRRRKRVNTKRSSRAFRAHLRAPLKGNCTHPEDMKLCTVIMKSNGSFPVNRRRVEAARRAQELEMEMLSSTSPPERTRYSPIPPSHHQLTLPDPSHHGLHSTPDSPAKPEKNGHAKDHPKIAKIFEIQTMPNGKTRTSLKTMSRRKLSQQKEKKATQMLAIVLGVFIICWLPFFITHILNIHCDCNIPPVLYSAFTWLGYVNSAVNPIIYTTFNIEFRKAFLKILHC

The Ki is a dissociation constant, usually derived from enzyme kinetics or from competition with a known ligand. Take `C=CCN1C[C@H](C(=O)N(CCCN(C)C)C(=O)NCC)C[C@@H]2c3cccc4[nH]cc(c34)C[C@H]21` [Compound 3, Cabergoline]: the inhibitory constant (Ki) under setting [1] was 0.0007 µM.
In the case of `OC1CCc2ccc(N=CN3CCc4ccccc4C3)cc21` (centres unmarked) [Compound S68, 6-(3,4-dihydro-1H-isoquinolin-2-ylmethylideneamino)-2,3-dihydro-1H-inden-1-ol], the Ki (Table S2, data set of inactives, radio-ligand binding (RLB) assays, ref ChEMBL, [71]-[92]) was greater than 300 µM.
As to `CCCN(CCCCNC(=O)c1ccc(OCCCc2cn(CCCCCCCCn3cc(CCCOc4ccc(C(=O)NCCCCN(CCC)C5Cc6ccccc6C5)cc4OC)nn3)nn2)c(OC)c1)C1Cc2ccccc2C1` [SC2, 4,4'-(((octane-1,8-diylbis(1H-1,2,3-triazole-1,4-diyl))bis(propane-3,1-diyl))bis(oxy))bis(N-(4-((2,3-dihydro-1H-inden-2-yl)(propyl)amino)butyl)-3-methoxybenzamide)], under setting [1], the Ki is 0.016 µM.
`CCCCn1cc(CCCOc2ccc(C(=O)NCCCCN(CCC)C3Cc4ccccc4C3)cc2OC)nn1` [SC3, 4-(3-(1-butyl-1H-1,2,3-triazol-4-yl)propoxy)-N-(4-((2,3-dihydro-1H-inden-2-yl)(propyl)amino)butyl)-3-methoxybenzamide]: under setting [1], the inhibition constant (Ki) is 0.012 µM.
With `O=C1NCCc2ccc(OCCCN3CCN(c4cccc(Cl)c4Cl)CC3)cc21` [SC5, 7-(3-(4-(2,3-dichlorophenyl)piperazin-1-yl)propoxy)-3,4-dihydroisoquinolin-1(2H)-one], the Ki under setting [1] was 0.018 µM.
In the case of `Clc1cccc(C2CCN(CCCCOc3ccc4scnc4c3)CC2)c1Cl` [SC6, 5-(4-(4-(2,3-dichlorophenyl)piperidin-1-yl)butoxy)benzo[d]thiazole], the inhibition constant Ki is 0.042 µM.
Consider `Clc1cccc(C2CCN(CCCOc3ccc4scnc4c3)CC2)c1Cl` [SC7, 5-(3-(4-(2,3-dichlorophenyl)piperidin-1-yl)propoxy)benzo[d]thiazole], for which, under setting [1], the Ki is 0.075 µM.
For the molecule `Clc1cccc(N2CCN(CCCOc3ccc4scnc4c3)CC2)c1Cl` [SC8, 5-(3-(4-(2,3-dichlorophenyl)piperazin-1-yl)propoxy)benzo[d]thiazole], the Ki under setting [1] was 0.03 µM.
For `C#CC1=CC[C@H](N(CCC)CCCCNC(=O)c2cc3ccccn3n2)CC1` [SC12, (R)-N-(4-((4-ethynylcyclohex-3-en-1-yl)(propyl)amino)butyl)pyrazolo[1,5-a]pyridine-2-carboxamide], the Ki was 0.0055 µM.
Consider `C#CC1=CC[C@H](N(CCC)CCCCNC(=O)c2cnn3ccccc23)CC1` [SC13, (R)-N-(4-((4-ethynylcyclohex-3-en-1-yl)(propyl)amino)butyl)pyrazolo[1,5-a]pyridine-3-carboxamide], for which the inhibition constant Ki was 0.0011 µM.
`C#CC1=CC[C@H](N(CCC)CCCCNC(=O)c2ccc(OCCCc3cnn(CCCC)n3)c(OC)c2)CC1` [SC14, (R)-4-(3-(2-butyl-2H-1,2,3-triazol-4-yl)propoxy)-N-(4-((4-ethynylcyclohex-3-en-1-yl)(propyl)amino)butyl)-3-methoxybenzamide]: under setting [1], the inhibition constant Ki was 0.0042 µM.
Take `C#CC1=CC[C@H](N(CCC)CCCCNC(=O)c2cc3ccccc3s2)CC1` [SC15, (R)-N-(4-((4-ethynylcyclohex-3-en-1-yl)(propyl)amino)butyl)benzo[b]thiophene-2-carboxamide]: under setting [1], the Ki is 0.0031 µM.
Take `CCCN(CCC)[C@@H]1Cc2cccc3nc(O)n(c23)C1` [SC17, (R)-5-(dipropylamino)-5,6-dihydro-4H-imidazo[4,5,1-ij]quinolin-2-ol]: under setting [1], the Ki is 0.0114 µM.
As for `Oc1ccc2c(c1)O[C@@H](CNCc1cccc(I)c1)CC2` [SC21, (R)-2-(((3-iodobenzyl)amino)methyl)chroman-7-ol], the Ki under setting [1] is 0.00206 µM.
Take `Oc1ccc2c(c1)O[C@@H](CNCc1ccc(OCCCCF)cc1)CC2` [SC22, (R)-2-(((4-(4-fluorobutoxy)benzyl)amino)methyl)chroman-7-ol]: the Ki under setting [1] was 0.0056 µM.
Take `Oc1ccc2c(c1)O[C@@H](CNCCN1CCN(c3ccc(OCCF)cc3)CC1)CC2` [SC23, (R)-2-(((2-(4-(4-(2-fluoroethoxy)phenyl)piperazin-1-yl)ethyl)amino)methyl)chroman-7-ol]: the inhibitory constant (Ki) under setting [1] was 0.00667 µM.
Regarding `CC(C)CCN1CCN2c3cccc4[nH]cc(c34)CC2C1` (centres unmarked) [SC25, 8-isopentyl-6,6a,7,8,9,10-hexahydro-4H-pyrazino[1,2-a]pyrrolo[4,3,2-de]quinoline], the Ki under setting [1] was 0.024 µM.
On to `c1cc2c3c(c[nH]c3c1)CC1CN(CC3CCCCC3)CCN21` (centres unmarked) [SC26, 8-(cyclohexylmethyl)-6,6a,7,8,9,10-hexahydro-4H-pyrazino[1,2-a]pyrrolo[4,3,2-de]quinoline], for which the inhibition constant (Ki) under setting [1] was 0.0537 µM.
As to `COc1ccccc1N1CCN(CCCCCNC(=O)c2sc3nc(OC)c(Cl)c(C)c3c2N)CC1` [SC27, 3-amino-5-chloro-6-methoxy-N-(5-(4-(2-methoxyphenyl)piperazin-1-yl)pentyl)-4-methylthieno[2,3-b]pyridine-2-carboxamide], under setting [1], the inhibitory constant (Ki) is 0.0035 µM.
As to `CC(C)(C)OC(=O)NCCCCCN1CCN(c2cccc(Cl)c2Cl)CC1` [SC28, tert-butyl (5-(4-(2,3-dichlorophenyl)piperazin-1-yl)pentyl)carbamate], the inhibition constant (Ki) under setting [1] was 0.0426 µM.
On to `Cc1cc(C)c2c(N)c(C(=O)NCCCCCN3CCN(c4cccc(Cl)c4Cl)CC3)sc2n1` [SC29, 3-amino-N-(5-(4-(2,3-dichlorophenyl)piperazin-1-yl)pentyl)-4,6-dimethylthieno[2,3-b]pyridine-2-carboxamide], for which the Ki under setting [1] was 0.0112 µM.
For `COc1ccccc1N1CCN(CCCNC(=O)OC(C)(C)C)CC1` [SC30, tert-butyl (3-(4-(2-methoxyphenyl)piperazin-1-yl)propyl)carbamate], the inhibition constant Ki under setting [1] was 0.0158 µM.
With `COc1ccccc1N1CCN(CCCCCNC(=O)OC(C)(C)C)CC1` [SC31, tert-butyl (5-(4-(2-methoxyphenyl)piperazin-1-yl)pentyl)carbamate], the Ki under setting [1] is 0.012 µM.
For `C1=C(c2ccccc2)CCN(C[C@@H]2CCC=C(c3ccccc3)C2)C1` [SC32, (R)-4-phenyl-1-((2,3,4,5-tetrahydro-[1,1'-biphenyl]-3-yl)methyl)-1,2,3,6-tetrahydropyridine], the inhibition constant (Ki) is 0.0084 µM.
Take `Oc1ccc(C2=CCC[C@@H](CN3CC=C(c4ccccc4)CC3)C2)cc1` [SC33, (R)-3'-((4-phenyl-3,6-dihydropyridin-1(2H)-yl)methyl)-2',3',4',5'-tetrahydro-[1,1'-biphenyl]-4-ol]: the Ki is 0.00062 µM.
As for `C#CC1=CC[C@@H](N(CCC)CCCCNC(=O)c2ccc(OCCCc3cn(CCCC)nn3)c(OC)c2)CO1` [SC34, (R)-4-(3-(1-butyl-1H-1,2,3-triazol-4-yl)propoxy)-N-(4-((6-ethynyl-3,4-dihydro-2H-pyran-3-yl)(propyl)amino)butyl)-3-methoxybenzamide], the inhibition constant (Ki) under setting [1] was 0.0016 µM.
Take `C#CC1=CC[C@H](N(CCC)CCCCNC(=O)c2ccc(OCCCc3cn(CCCC)nn3)c(OC)c2)CO1` [SC35, (S)-4-(3-(1-butyl-1H-1,2,3-triazol-4-yl)propoxy)-N-(4-((6-ethynyl-3,4-dihydro-2H-pyran-3-yl)(propyl)amino)butyl)-3-methoxybenzamide]: under setting [1], the Ki is 0.0049 µM.
`CCCCn1cc(CCCOc2ccc(C(=O)NCCCCN(CCC)CCc3ccc(O)c4[nH]c(=O)ccc34)cc2OC)nn1` [SC36, 4-(3-(1-butyl-1H-1,2,3-triazol-4-yl)propoxy)-N-(4-((2-(8-hydroxy-2-oxo-1,2-dihydroquinolin-5-yl)ethyl)(propyl)amino)butyl)-3-methoxybenzamide]: the inhibitory constant (Ki) under setting [1] was 0.024 µM.
Consider `CCCCn1cc(CCCOc2ccc(C(=O)NCCCCN(CCC)[C@H]3CCc4c(O)cccc4C3)cc2OC)nn1` [SC37, (S)-4-(3-(1-butyl-1H-1,2,3-triazol-4-yl)propoxy)-N-(4-((5-hydroxy-1,2,3,4-tetrahydronaphthalen-2-yl)(propyl)amino)butyl)-3-methoxybenzamide], for which the inhibition constant Ki under setting [1] is 0.00047 µM.
In the case of `CCCN(CCC)[C@@H]1Cc2cccc3c2n(c(=O)n3CCC)C1` [SC38, (R)-5-(dipropylamino)-1-propyl-5,6-dihydro-4H-imidazo[4,5,1-ij]quinolin-2(1H)-one], under setting [1], the Ki was 0.00259 µM.
With `CCCCn1c(=O)n2c3c(cccc31)C[C@@H](NC)C2` [SC39, (R)-1-butyl-5-(methylamino)-5,6-dihydro-4H-imidazo[4,5,1-ij]quinolin-2(1H)-one], the inhibitory constant (Ki) under setting [1] is 0.0128 µM.
Take `CCCn1c(=O)n2c3c(cccc31)C[C@@H](NC)C2` [SC40, (R)-5-(methylamino)-1-propyl-5,6-dihydro-4H-imidazo[4,5,1-ij]quinolin-2(1H)-one]: the Ki under setting [1] is 0.0132 µM.
With `CCCN[C@@H]1Cc2cccc3c2n(c(=O)n3CCC)C1` [SC41, (R)-1-propyl-5-(propylamino)-5,6-dihydro-4H-imidazo[4,5,1-ij]quinolin-2(1H)-one], the Ki under setting [1] was 0.00808 µM.
For `CCCN[C@@H]1Cc2cccc3c2n(c(=O)n3CCCCOCCCCc2ccccc2)C1` [SC42, (R)-1-(4-(4-phenylbutoxy)butyl)-5-(propylamino)-5,6-dihydro-4H-imidazo[4,5,1-ij]quinolin-2(1H)-one], the Ki under setting [1] was 0.0372 µM.
For `CCCN(CCC)[C@@H]1Cc2cccc3c2n(c(=O)n3CCCCNC(=O)c2cc3ccccc3[nH]2)C1` [SC43, (R)-N-(4-(5-(dipropylamino)-2-oxo-5,6-dihydro-4H-imidazo[4,5,1-ij]quinolin-1(2H)-yl)butyl)-1H-indole-2-carboxamide], the inhibitory constant (Ki) was 0.0868 µM.
On to `CN[C@@H]1Cc2cccc3c2n(c(=O)n3CCCCOc2ccc3c(c2)NC(=O)CC3)C1` [SC44, (R)-5-(methylamino)-1-(4-((2-oxo-1,2,3,4-tetrahydroquinolin-7-yl)oxy)butyl)-5,6-dihydro-4H-imidazo[4,5,1-ij]quinolin-2(1H)-one], for which, under setting [1], the Ki was 0.338 µM.
In the case of `CN[C@@H]1Cc2cccc3c2n(c(=O)n3CCOCCOCCOCCCCc2ccccc2)C1` [SC45, (R)-5-(methylamino)-1-(2-(2-(2-(4-phenylbutoxy)ethoxy)ethoxy)ethyl)-5,6-dihydro-4H-imidazo[4,5,1-ij]quinolin-2(1H)-one], the Ki under setting [1] is 0.0347 µM.
`O=c1ccc2c(N3CCCN(CCCCOc4ccn5nccc5c4)CC3)ccc(O)c2[nH]1` [SC46, 8-hydroxy-5-(4-(4-(pyrazolo[1,5-a]pyridin-5-yloxy)butyl)-1,4-diazepan-1-yl)quinolin-2(1H)-one]: the inhibitory constant (Ki) under setting [1] was 0.078 µM.
